This experiment has as its target human cannabinoid CB2 receptors (Homo sapiens, UniProt P34972). Kind of experiment: [35S]GTPγS binding assay, hCB2-transfected CHO cell membranes. Conditions: stimulation of [35S]GTPγS binding.

human cannabinoid CB2 receptors, sequence (P34972 whole entry): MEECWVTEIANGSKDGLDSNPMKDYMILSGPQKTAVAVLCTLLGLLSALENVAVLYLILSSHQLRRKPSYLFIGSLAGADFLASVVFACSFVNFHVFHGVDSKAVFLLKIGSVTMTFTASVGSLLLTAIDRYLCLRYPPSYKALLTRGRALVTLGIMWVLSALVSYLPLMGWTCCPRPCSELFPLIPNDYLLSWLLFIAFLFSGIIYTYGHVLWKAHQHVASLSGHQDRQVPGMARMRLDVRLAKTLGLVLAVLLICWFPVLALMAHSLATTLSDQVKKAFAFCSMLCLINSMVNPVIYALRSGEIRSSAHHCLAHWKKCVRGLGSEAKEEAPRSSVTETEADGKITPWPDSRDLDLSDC
Procedure: CHO cells were stably transfected with cDNA encoding human cannabinoid CB2 receptors and were maintained at 37° C. and 5% CO2 in Dulbecco's Modified Eagle's Medium nutrient mixture.
The assays were carried out with GTPγS binding buffer (50 mM Tris-HCl; 50 mM Tris-Base; 5 mM MgCl2; 1 mM EDTA; 100 mM NaCl; 1 mM DTT; 0.1% BSA) in the presence of [^35S]GTPγS and GDP, in a final volume of 500 μl. Binding was initiated by the addition of [^35S]GTPγS to the tubes. The drugs were incubated in the assay for 60 min at 30° C. The reaction was terminated by a rapid vacuum filtration method using Tris buffer (50 mM Tris-HCl; 50 mM Tris-Base; 0.1% BSA), as described previously, and the radioactivity was quantified by liquid scintillation spectrometry.
The agonism of the CB1 or CB2 receptors by CP55940 results in a response in the cell. This response is the binding of [^35S]GTPγS to the cell membrane.
Changes in the response in the presence of the test compound can be measured in order to determine whether the compound is acting as an agonist, a neutral antagonist or an inverse agonist.

In the case of SR144528, the “shift in the log-concentration response curve of CP55940” value is “downward and rightward shift”.

The values are drawn from patent US20090306221A1, “Use for Cannabinoid” (GW PHARMA LIMITED, priority 2006, published 2009).
